In patent US11478526B2, “Methods of reducing neuroinflammation or toxicity induced by amyloid beta (abeta) using glucocorticoid induced leucine zipper (GILZ) analog peptides” (INDIANA UNIVERSITY RESEARCH AND TECHNOLOGY CORPORATION, priority 2016, dated 2022):

System: U373 cells
Test: Annexin-V and propidium iodide apoptosis by flow cytometry
Assay type: cell-based, human
Conditions: score 1/0
Protocol: Detection apoptosis by flow cytometry: To further assess cell cytotoxicity, the apoptotic effects of individual GA or control peptide was evaluated by the Annexin-V and propidium iodide (PI) dual staining method (Annexin-V-Fluos staining kit, Roche Diagnostics, Mannheim, Germany). As opposed to apoptotic cells, necrotic cells with ruptured cell membrane take up PI, the DNA binding dye. Thus, cells which take up both fluorochromes are a mixture of apoptotic and necrotic cells, whereas cells that exclude PI but bind Annexin V are (early) apoptotic cells. U373 cells cultured with varying concentrations of individual GA or control peptide (0.5 μM to 50 μM) for 24 hours were centrifuged and suspended in 100 μl of Annexin V/PI labelling solution (20 μl each of Annexin-V-Fluos labelling reagent and PI in 1 ml of binding buffer) for 15 min at room temperature. After washing the cells were resuspended in PBS:1% paraformaldehyde and analyzed using a FACScan flow cytometer (BD Biosciences, San Jose, Calif.).

**Q.** With Ac-EPAPESPQV-NH2 [PGA-4] as the substance, how does the “% apoptosis at LD50” value read?
**A.** 1 (<25)

**Q.** For Ac-EPAPLAPYG-NH2 [PGA-2], which “% apoptosis at LD50” value is on record?
**A.** 1 (<25)
